Converted amounts (≈) assume the structure as drawn.
Legend:
C3H/3T3 cells = assay: Microscopic alteration of C3H/3T3 cell culture morphology; type: cell-based, murine; conditions: concentration that results in a microscopic alteration of C3H/3T3 cell culture morphology
MT-4 cells = assay: MT-4 cell viability (cytotoxicity); type: cell-based, human; conditions: for CC50: concentration reducing MT-4 cell viability by 50%
Experimental: The activity of the compounds against HIV-1 and HIV-2 induced cytopathicity was examined in human lymphocyte MT-4 cells. […]. The infected cell cultures were then incubated at 37° C. for 5 days in a humidified CO2-controlled incubator. Then, the cytopathicity of the virus was examined by determination of MT-4 cell viability by trypan blue dye staining. The results are summarized in Table 1 in comparison with the data on the prototype compounds.

[1] = tested on: Moloney murine sarcoma virus (MSV); assay: MSV-induced transformation of C3H/3T3 cells; type: cell-based; conditions: concentration inhibiting MSV-induced cell transformation by 50%
Experimental: The cells were seeded in 1-ml-wells of a 48-well microtiter plate and exposed to 80 PFU (plaque forming units) for 60-90 minutes. Then, the virus was removed and culture medium containing appropriate concentrations of the test compounds were added (1 ml per well). At day 6 post infection, MSV-induced transformation of the cell culture was examined microscopically.

HIV-2 = HIV-2 induced cytopathicity in MT-4 cells; type: cell-based, human immunodeficiency virus type 2; conditions: for EC50 HIV-2: MT-4 cells, concentration inhibiting HIV-induced cytopathicity by 50%
Experimental: (§1) The activity of the compounds against HIV-1 and HIV-2 induced cytopathicity was examined in human lymphocyte MT-4 cells. […] The infected cell cultures were then incubated at 37° C. for 5 days in a humidified CO2-controlled incubator. Then, the cytopathicity of the virus was examined by determination of MT-4 cell viability by trypan blue dye staining.

[2] = tested on: Moloney murine sarcoma virus (MSV); assay: MSV infection in newborn NMRI mice, intraperitoneal administration; type: in vivo; parameters: protection of the animals against MSV-induced tumor development: unit not given here; conditions: for antiretroviral activity in vivo (in words): dose of 50 mg/kg i.p.
Experimental: Two gram newborn NMRI mice were injected intramuscularly in the left hind leg with 50 μl of 250-fold diluted stock preparation of Moloney murine sarcoma virus. […] Another group of mice (20 animals) was administered RPMI-1640 medium as placebo. All compounds were solubilized in RPMI-1640 medium. The mice were observed daily for 20 days and the day of tumor initiation and the day of animal death was recorded for each animal. Statistical analyses were performed by calculating the standard deviation.

HIV-1 = HIV-1 induced cytopathicity in MT-4 cells; type: cell-based, human immunodeficiency virus type 1; conditions: for EC50 HIV-1: MT-4 cells, concentration inhibiting HIV-induced cytopathicity by 50%
Experimental: as §1

[3] = tested on: Moloney murine sarcoma virus (MSV); assay: MSV infection in three-week-old NMRI mice, oral administration; type: in vivo; conditions: twice a day, 100 mg/kg (total dose) daily for five days
Experimental: Three-week-old NMRI mice (about 10 grams body weight) were injected intramuscularly in the left hind leg with 50 μl of 20-fold diluted stock preparation of Moloney murine sarcoma virus. Starting 2-4 hours before virus infection,six animals received an orally administered test compound twice a day at 100 mg/kg(total dose) daily for five subsequent days. The control (placebo) group consisted of 14 animals. The experiment was evaluated as described in Example 35.

retrovirus replication = assay: Anti-retrovirus activity in vitro (conclusions on HIV and MSV tests); type: cell-based
herpes viruses = conditions: racemic mixtures, prior art; cited from earlier work
[4] = 10 mg/kg single dose i.p., NMRI mice
[5] = 25 mg/kg single dose i.p., NMRI mice
[6] = 50 mg/kg single dose i.p., NMRI mice
[7] = 2 mg/kg single dose i.p., NMRI mice
[8] = 5 mg/kg single dose i.p., NMRI mice
[9] = 20 mg/kg single dose i.p., NMRI mice

| Structure (SMILES) | MIC (C3H/3T3 cells) [µg/mL] | CC50 (MT-4 cells) [µg/mL] | EC50 MSV [1] [µg/mL] | EC50 HIV-2 (HIV-2) [µg/mL] | percentage of MSV-infected mice still alive at day 20 post infection ([2]; 10 mg/kg single dose i.p.) | Mean day of tumor initiation [2, 4] [days] | percentage of MSV-infected mice still alive at day 20 post infection ([2]; 50 mg/kg single dose i.p.) | percentage of MSV-infected mice without tumor at day 20 post infection ([2]; 50 mg/kg single dose i.p.) | Mean day of tumor initiation [2, 6] [days] | EC50 HIV-1 (HIV-1) [µg/mL] | percentage of MSV-infected mice still alive at day 20 post infection ([2]; 20 mg/kg single dose i.p.) | percentage of MSV-infected mice without tumor at day 20 post infection ([2]; 20 mg/kg single dose i.p.) | Mean day of tumor initiation [2, 9] [days] | further results |
| --- | --- | --- | --- | --- | --- | --- | --- | --- | --- | --- | --- | --- | --- | --- |
| Nc1nc(N)c2ncn(C[C@@H](CF)OCP(=O)(O)O)c2n1 [(S)-FPMPDAP] | >100 | >100 | 1.7 (≈ 5.31 µM) | 3.3 (≈ 10.3 µM) | (33%) | 8.5 ± 2.6 | (67%) | (17%) | 11.0 ± 2.1 | 4.8 (≈ 15 µM) | – | – | – | Mean day of tumor initiation [2, 5]: 8.3 ± 1.8 days |
| Nc1nc(N)c2ncn(C[C@H](CF)OCP(=O)(O)O)c2n1 [(R)-FPMPDAP, reference compound] | >100 | >100 | 1.7 (≈ 5.31 µM) | 1.5 (≈ 4.68 µM) | – | 5.6 ± 1.0 | (10%) | – | 7.75 ± 1.3 | 1.4 (≈ 4.37 µM) | – | – | – | percentage of MSV-infected mice still alive at day 20 post infection ([2]; 25 mg/kg single dose i.p.): (15%); Mean day of tumor initiation [2, 5]: 7.7 ± 1.9 days |
| C[C@@H](Cn1cnc2c(N)nc(N)nc21)OCP(=O)(O)O [(S)-PMPDAP, 9-(S)-(2-Phosphonomethoxypropyl)-2.6-Diaminopurine] | >100 | >100 | 2.9 (≈ 9.6 µM) | 4.0 (≈ 13.2 µM) | – | – | – | – | – | 2.0 (≈ 6.62 µM) | – | – | – | – |
| C[C@H](Cn1cnc2c(N)nc(N)nc21)OCP(=O)(O)O [(R)-PMPDAP, 9-(R)-(2-Phosphonomethoxypropyl)-2,6-Diaminopurine] | >100 | >100 | 0.14 (≈ 0.463 µM) | 0.06 (≈ 0.199 µM) | (90) % | 11.5 | – | – | – | 0.05 (≈ 0.165 µM) | (95) % | (95) % | 11 | concentration non-toxic to the cells (MT-4 cells): 100 µg/mL; selectivity index (ratio cytotoxic dose/antivirally active dose) (HIV-2; HIV-2): > 2000; Mean day of tumor initiation [2, 7]: 11 days; percentage of MSV-infected mice still alive at day 20 post infection ([2]; 5 mg/kg single dose i.p.): (90) %; percentage of MSV-infected mice without tumor at day 20 post infection ([2]; 5 mg/kg single dose i.p.): (70) %; Mean day of tumor initiation [2, 8]: 12.8 days; percentage of MSV-infected mice without tumor at day 20 post infection ([2]; 10 mg/kg single dose i.p.): (90) %; anti-MSV activity in vivo relative to (R)-PMPA ([2]; i.p., NMRI mice): five fold superior over (R)-PMPA; protection of the animals against MSV-induced tumor development ([2]; single dose of 10-20 mg/kg i.p.): 90-95; Mean day of tumor initiation [3]: 7.5 ± 1.0^*) day; Number of mice developing tumor (%) [3]: 67%; EC50 retrovirus replication (retrovirus replication; in vitro): 0.01 to 0.1 µg/mL; selectivity index (ratio cytotoxic dose/antivirally active dose) (HIV-1; HIV-1): > 2000 |
| Nc1ncnc2c1ncn2CCOCP(=O)(O)O [PMEA] | >100 | 67 (≈ 245 µM) | – | – | (43%) | 9.8 ± 1.9 | (90%) | (90%) | 9.0 | – | (66%) | (44%) | 10.6 ± 2.0 | percentage of MSV-infected mice without tumor at day 20 post infection ([2]; 10 mg/kg single dose i.p.): (24%); Mean day of animal death [2, 4]: 14.2 ± 2.5 days; Mean day of animal death [2, 9]: 14.7 ± 1.8 days; Mean day of animal death [2, 6]: 16.0 days |
| Nc1ncnc2c1ncn2C[C@@H](CF)OCP(=O)(O)O [(S)-FPMPA] | >100 | >100 | 1.5 (≈ 4.91 µM) | 2.6 (≈ 8.52 µM) | (40%) | 7.7 ± 2.4 | (100%) | (100%) | >20 | 2.7 (≈ 8.85 µM) | (55%) | (31%) | 11 ± 2.7 | antiretroviral activity in vivo (in words) [2]: no marked antiretroviral activity in vivo |
| Nc1ncnc2c1ncn2C[C@H](CF)OCP(=O)(O)O [(R)-FPMPA, reference compound] | >100 | >100 | >100 | 54 (≈ 177 µM) | – | – | – | – | 4.7 ± 0.67 | 83 (≈ 272 µM) | – | – | 4.3 ± 0.48 | – |
| C[C@@H](Cn1cnc2c(=O)[nH]c(N)nc21)OCP(=O)(O)O [(S)-PMPG, 9-(S)-(2-Phosphonomethoxypropyl)guanine] | 8 (≈ 26.4 µM) | 45 (≈ 148 µM) | 0.95 (≈ 3.13 µM) | 1.3 (≈ 4.29 µM) | – | – | – | – | – | 1.2 (≈ 3.96 µM) | – | – | – | – |
| C[C@H](Cn1cnc2c(=O)[nH]c(N)nc21)OCP(=O)(O)O [(R)-PMPG, 9-(R)-(2-Phosphonomethoxypropyl)guanine] | 40 (≈ 132 µM) | >100 | 0.15 (≈ 0.495 µM) | 1.7 (≈ 5.61 µM) | – | – | – | – | – | 1.8 (≈ 5.94 µM) | – | – | – | – |
| CC(Cn1cnc2c(=O)[nH]c(N)nc21)OCP(=O)(O)O (stereo not drawn) [PMPG] | – | – | – | – | – | – | – | – | – | – | – | – | – | antiherpetic effect (in words) (herpes viruses): appeared due to its substantial cytotoxicity |
| C[C@H](Cn1cnc2c(N)ncnc21)OCP(=O)(O)O [(R)-PMPA, 9-(R)-(2-Phosphonomethoxypropyl)adenine] | >100 | >100 | 0.99 (≈ 3.45 µM) | – | (85%) | 12.9 ± 2.2 | (100%) | (100%) | >20 | 1.7 (≈ 5.92 µM) | (100%) | (80%) | 13.5 ± 3.5 | Mean day of tumor initiation [2, 7]: 5.3 ± 1.1 days; percentage of MSV-infected mice still alive at day 20 post infection ([2]; 5 mg/kg single dose i.p.): (20%); percentage of MSV-infected mice without tumor at day 20 post infection ([2]; 5 mg/kg single dose i.p.): (10%); Mean day of tumor initiation [2, 8]: 7.11 ± 1.5 days; percentage of MSV-infected mice without tumor at day 20 post infection ([2]; 10 mg/kg single dose i.p.): (75%); Mean day of animal death [2, 9]: >20 days; protection against MSV-induced tumor development (in words) ([2]; single dose of 50 mg/kg i.p.): full protection; concentration markedly inhibitory to retrovirus replication (retrovirus replication; in vitro): 1 to 2 µg/mL |
| C[C@H](Cn1cnc2c(N)ncnc21)OCP(=O)(O)O [PMPA] | – | – | – | – | – | – | – | – | – | – | – | – | – | antiherpetic effect (in words) (herpes viruses): devoid of any appreciable antiherpetic effect |
| C[C@@H](Cn1cnc2c(N)ncnc21)OCP(=O)(O)O [(S)-PMPA, 9-(S)-(2-Phosphonomethoxypropyl)adenine] | >100 | >100 | 120 (≈ 418 µM) | 63 (≈ 219 µM) | – | 4.7 ± 0.95 | – | – | 5.8 ± 0.63 | 78 (≈ 272 µM) | – | – | 4.5 ± 0.71 | antiretroviral activity in vivo (in words) [2]: no marked antiretroviral activity in vivo; antiretroviral activity in vitro (in words) (retrovirus replication): devoid of marked antiretroviral activity |

Reference: patent publication US6479673B1, “Antiretroviral enantiomeric nucleotide analogs” (Institute of Organic Chemistry and Biochemistry of the …, priority 1992, dated 2002)
